# Legend:
# K. pneumoniae [1] = assay: Growth inhibition screening (broth dilution); type: cell-based, Klebsiella pneumonia; conditions: Klebsiella pneumoniae
# Procedure: (§1) In vitro screening of the compounds (PS1–14) was performed to assess the antibacterial activity against three Gram-positive (Staphylococcus aureus, Enterococcus faecalis and Bacillus subtilis,) and three Gram-negative (Pseudomonas aeruginosa, Klebsiella pneumonia and Escherichia coli) bacterial strains using the standard NCCLS broth dilution assay. The study’s standard drugs were ciprofloxacin (CIP) and ampicillin (AMP). Compounds were dissolved in a polar solvent (DMSO) and distributed into a 96-well plate in 200 µL of nutrient broth medium, with a final concentration of the compounds […] in each well. The bacterial cells (about 2.5 × 10^5 cells/mL) were inoculated into each well and incubated at 37 °C overnight. After incubation, the growth was measured by turbidity of the culture at 590 nm by spectrophotometer.
# B. subtilis [2] = assay: Growth inhibition screening (broth dilution); type: cell-based, Bacillus subtilis; conditions: Bacillus subtilis
# Procedure: as §1
# E. coli [3] = assay: Minimum inhibitory concentration (broth dilution); type: cell-based, Escherichia coli; conditions: Escherichia coli, alone, read-out: MIC
# S. aureus [4] = assay: Growth inhibition screening (broth dilution); type: cell-based, Staphylococcus aureus; conditions: Staphylococcus aureus
# Procedure: as §1
# E. faecalis [5] = assay: Growth inhibition screening (broth dilution); type: cell-based, Enterococcus faecalis; conditions: Enterococcus faecalis
# Procedure: as §1
# K. pneumoniae [6] = assay: Minimum inhibitory concentration (broth dilution); type: cell-based, Klebsiella pneumonia; conditions: Klebsiella pneumoniae, alone, read-out: MIC
# E. coli [7] = assay: Combination study with AMP or CIP
# B. subtilis [8] = assay: Combination study with AMP or CIP
# P. aeruginosa [9] = assay: Combination study with AMP or CIP
# E. coli [10] = assay: Growth inhibition screening (broth dilution); type: cell-based, Escherichia coli; conditions: Escherichia coli
# Procedure: as §1
# E. faecalis [11] = assay: Combination study with AMP or CIP
# S. aureus [12] = assay: Minimum inhibitory concentration (broth dilution); type: cell-based; conditions: Staphylococcus aureus, alone
# S. aureus [13] = assay: Combination study with AMP or CIP
# K. pneumoniae [14] = assay: Combination study with AMP or CIP
# P. aeruginosa [15] = assay: Minimum inhibitory concentration (broth dilution); type: cell-based; conditions: Pseudomonas aeruginosa, alone
# E. faecalis [16] = assay: Minimum inhibitory concentration (broth dilution); type: cell-based; conditions: Enterococcus faecalis, alone
# P. aeruginosa [17] = assay: Growth inhibition screening (broth dilution); type: cell-based, Pseudomonas aeruginosa; conditions: Pseudomonas aeruginosa
# Procedure: as §1
# MtMetAP1c = biological target: T1, MtMetAP1c (Mycobacterium tuberculosis, UniProt P9WK19); assay: MetAP enzyme inhibition, Morrison Ki (Met-AMC fluorescence); type: biochemical, M. tuberculosis; conditions: Morrison Ki method
# T1 construct: made in house
# T1 sequence (P9WK19 whole entry): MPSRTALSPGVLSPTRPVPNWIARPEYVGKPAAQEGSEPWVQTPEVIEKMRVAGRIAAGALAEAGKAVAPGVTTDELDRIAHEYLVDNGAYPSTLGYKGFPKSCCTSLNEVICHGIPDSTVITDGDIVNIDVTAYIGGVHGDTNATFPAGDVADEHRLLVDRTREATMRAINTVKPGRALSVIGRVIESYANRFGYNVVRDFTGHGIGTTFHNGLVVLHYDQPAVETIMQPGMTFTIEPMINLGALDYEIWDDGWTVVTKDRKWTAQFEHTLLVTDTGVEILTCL
# Procedure: MetAP appears to serve a vital role in the co- or post-translational modification of proteins, making it essential for bacterial cell metabolism and survival. In this study, all enzymes, which were used for this study, including MtMetAP1c (M. tuberculosis), EfMetAP1a (E. faecalis), SpMetAP1a (S. pneumoniae) and HsMetAP1b (H. sapiens) enzymes, were expressed and purified in our lab as previously reported. All compounds prepared 10 mM stocks in DMSO and were used for enzyme inhibition studies. The concentration of each enzyme is adjusted such that they have similar reaction rates (HsMetAp1b, 1 µM; SpMetAP1a, 5 µM; EfMetAP1a, 1 µM; MtMetAP1c, 1 µM;) as reported earlier. All assays were performed in […] reaction containing 50 mM HEPES (pH 7.5 for SpMetAP1a and HsMetAP1b; 8.0 for EfMetAP1a, MtMetAP1c, […]), 150 mM NaCl, and CoCl2 (three molar equivalents of corresponding enzymes). The reaction was started by adding 50 μM L-Methionine 7-amido-4-methyl coumarin (Met-AMC) and continuously monitoring the fluorescence of released 7-amino-4-methyl coumarin (AMC) (380 nm excitation and 460 nm emission) in a microplate multimode reader (TECAN, Austria). The maximum percentage of inhibition against enzymes is calculated at […] compound concentration. […] The Ki values were determined according to the Morrison method using three different concentrations of substrates and ten different concentrations of the inhibitor. All experiments were performed in triplicate. GraphPad Prism version 8.0.0 (San Diego, CA, USA) was used to determine all the kinetic parameters.
# EfMetAP1a = EfMetAP1a (Enterococcus faecalis, UniProt Q832M5); assay: as above; type: biochemical; conditions: Morrison Ki method
# Sequence of EfMetAP1a (Q832M5 entry or part of it): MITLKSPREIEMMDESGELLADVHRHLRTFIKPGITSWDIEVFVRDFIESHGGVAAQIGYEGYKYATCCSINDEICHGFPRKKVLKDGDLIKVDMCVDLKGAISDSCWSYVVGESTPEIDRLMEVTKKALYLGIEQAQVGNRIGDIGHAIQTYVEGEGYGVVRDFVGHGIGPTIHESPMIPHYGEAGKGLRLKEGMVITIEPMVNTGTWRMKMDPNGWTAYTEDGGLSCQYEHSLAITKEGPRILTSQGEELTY
# SpMetAP1a = SpMetAP1a (Streptococcus pneumoniae, UniProt Q8DPV1); assay: as above; type: biochemical; conditions: Morrison Ki method
# Sequence of SpMetAP1a (Q8DPV1 entry or part of it): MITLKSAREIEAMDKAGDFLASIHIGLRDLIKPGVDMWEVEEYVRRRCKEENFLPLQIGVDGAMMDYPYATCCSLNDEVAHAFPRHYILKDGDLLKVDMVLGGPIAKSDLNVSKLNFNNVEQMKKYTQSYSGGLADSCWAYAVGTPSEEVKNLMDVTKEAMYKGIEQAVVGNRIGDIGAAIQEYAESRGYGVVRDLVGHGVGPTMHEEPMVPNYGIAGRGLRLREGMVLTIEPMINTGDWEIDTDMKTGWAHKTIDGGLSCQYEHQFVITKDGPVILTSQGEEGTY
SMILES,inhibition at 250 µg/mL (K. pneumoniae [1]) [%],inhibition at 250 µg/mL (B. subtilis [2]) [%],inhibition at 250 µg/mL (S. aureus [4]) [%],inhibition at 250 µg/mL (E. faecalis [5]) [%],inhibition at 250 µg/mL (E. coli [10]) [%],inhibition at 250 µg/mL (P. aeruginosa [17]) [%],melting point [°C],Ki (MtMetAP1c) [µM],further results
"O=C(O)c1cn(C2CC2)c2cc(N3CCNCC3)c(F)cc2c1=O [CIP, Ciprofloxacin, reference compound]",100,100,100,100,100,100,–,–,MIC (E. coli [3]): 8 µg/mL; MIC (K. pneumoniae [6]): 8 µg/mL; MIC in Combination (E. coli [7]; combination PS6 + CIP): 0.5 µg/mL; MIC in Combination (E. coli [7]; combination PS9 + CIP): 0.03125 µg/mL; MIC in Combination (B. subtilis [8]; combination PS6 + CIP): 0.0078 µg/mL; MIC in Combination (B. subtilis [8]; combination PS9 + CIP): 0.5 µg/mL; MIC in Combination (P. aeruginosa [9]; combination PS6 + CIP): 0.5 µg/mL; MIC in Combination (P. aeruginosa [9]; combination PS9 + CIP): 0.125 µg/mL; MIC in Combination (E. faecalis [11]; combination PS6 + CIP): 0.0625 µg/mL; MIC in Combination (E. faecalis [11]; combination PS9 + CIP): 1 µg/mL; MIC (S. aureus [12]): 0.5 µg/mL; MIC in Combination (S. aureus [13]; combination PS6 + CIP): 0.25 µg/mL; MIC in Combination (S. aureus [13]; combination PS9 + CIP): 0.0156 µg/mL; MIC in Combination (K. pneumoniae [14]; combination PS6 + CIP): 4 µg/mL; MIC in Combination (K. pneumoniae [14]; combination PS9 + CIP): 0.0078 µg/mL; MIC (P. aeruginosa [15]): 4 µg/mL; MIC (E. faecalis [16]): 1 µg/mL
"O=C1Nc2ccccc2/C1=N\NC(=O)c1cc(-c2cccc(Br)c2)n[nH]1 [PS1, (E)-3-(3-Bromophenyl)-N′-(2-Oxoindolin-3-YLIDENE)-1H-Pyrazole-5-Carbohydrazide]",74,76,73,12,40,4,218 to 221,2.3 ± 0.27,Ki (EfMetAP1a): 2.65 ± 0.34 µM; Ki (SpMetAP1a): 4.48 ± 0.12 µM
"Cc1ccc2c(c1)/C(=N\NC(=O)c1cc(-c3cccc(Br)c3)n[nH]1)C(=O)N2 [PS2, (E)-3-(3-Bromophenyl)-N′-(5-Methyl-2-Oxoindolin-3-Ylidene)-1H-Pyrazole-5-Carbohydrazide]",90,80,66,10,86,87,209 to 213,4.37 ± 0.14,Ki (SpMetAP1a): 2.98 ± 0.18 µM
"Cc1cc(C)c2c(c1)/C(=N\NC(=O)c1cc(-c3cccc(Br)c3)n[nH]1)C(=O)N2 [PS4, (E)-3-(3-Bromophenyl)-N′-(5,7-Dimethyl-2-Oxoindolin-3-Ylidene)-1H-Pyrazole-5-Carbohydrazide]",97,44,81,47,80,90,257 to 260,–,–
"O=C1Nc2ccc(Br)cc2/C1=N\NC(=O)c1cc(-c2cccc(Br)c2)n[nH]1 [PS5, (E)-N′-(5-Bromo-2-Oxoindolin-3-Ylidene)-3-(3-Bromophenyl)-1H-Pyrazole-5-Carbohydrazide]",100,34,100,86,9,100,230 to 233,3.14 ± 0.41,–
"O=C1Nc2cc(F)ccc2/C1=N\NC(=O)c1cc(-c2cccc(Br)c2)n[nH]1 [PS7, (E)-3-(3-Bromophenyl)-N′-(6-Fluoro-2-Oxoindolin-3-Ylidene)-1H-Pyrazole-5-Carbohydrazide]",49,100,10,99,3,65,228 to 230,–,–
"O=C1Nc2ccc(Cl)cc2/C1=N\NC(=O)c1cc(-c2cccc(Br)c2)n[nH]1 [PS8, (E)-3-(3-Bromophenyl)-N′-(5-Chloro-2-Oxoindolin-3-Ylidene)-1H-Pyrazole-5-Carbohydrazide]",52,93,3,13,84,100,217 to 220,–,–
"O=C1Nc2c(cccc2[N+](=O)[O-])/C1=N\NC(=O)c1cc(-c2cccc(Br)c2)n[nH]1 [PS10, (E)-3-(3-Bromophenyl)-N′-(7-Nitro-2-Oxoindolin-3-Ylidene)-1H-Pyrazole-5-Carbohydrazide]",52,56,82,85,88,100,215 to 218,–,–
"COc1ccc2c(c1)NC(=O)/C2=N/NC(=O)c1cc(-c2cccc(Br)c2)n[nH]1 [PS12, (E)-3-(3-Bromophenyl)-N′-(6-Methoxy-2-Oxoindolin-3-Ylidene)-1H-Pyrazole-5-Carbohydrazide]",6,85,100,65,74,23,228 to 230,0.61 ± 0.03,Ki (EfMetAP1a): 3.25 ± 0.14 µM
"O=C1Nc2c(Cl)cccc2/C1=N\NC(=O)c1cc(-c2cccc(Br)c2)n[nH]1 [PS13, (E)-3-(3-Bromophenyl)-N′-(7-Chloro-2-Oxoindolin-3-Ylidene)-1H-Pyrazole-5-Carbohydrazide]",74,33,92,36,20,95,205 to 208,–,–
"O=C1Nc2cc([N+](=O)[O-])ccc2/C1=N\NC(=O)c1cc(-c2cccc(Br)c2)n[nH]1 [PS14, (E)-3-(3-Bromophenyl)-N′-(6-Nitro-2-Oxoindolin-3-Ylidene)-1H-Pyrazole-5-Carbohydrazide]",17,86,33,9,34,3,225 to 228,1.27,Ki (SpMetAP1a): 0.5 ± 0.03 µM

# Source: publication PMC9405123, “Design, Synthesis and Mechanistic Studies of Novel Isatin-Pyrazole Hydrazone Conjugates as Selective and Potent Bacterial MetAP Inhibitors” (Antibiotics, 2022)
